From patent US20240024273A1, “TOPICAL ADMINISTRATION OF 2-(DIETHYLAMINO)ETHYL 2-(4-ISOBUTYLPHENYL)PROPRIONATE FOR TREATMENT OF DISEASES” (TECHFIELDS PHARMA CO., LTD., priority 2020, published 2024)

Tested on: Mild to Moderate Osteoarthritis of the Knee
Test: Phase 2 study: WOMAC joint stiffness subscale score
Assay type: in vivo, human
Settings: for Change of WOMAC Joint Stiffness score from baseline (±SEM) / Percentage of improvement from baseline, WOMAC Joint Stiffness score: all patients taken as active
Text: This is a Phase 2, multicenter, randomized, double blind (within dose), placebo controlled, parallel group, proof of concept, and dose range finding study to evaluate the efficacy, safety, and PK of 2-(diethylamino)ethyl 2-(4-isobutylphenyl)propionate hydrochloride spray in adult subjects with clinically symptomatic mild to moderate OA of the knee. For subjects with bilateral knee pain, both knees will be treated, but the most symptomatic knee (i.e., the most painful knee as measured by the Western Ontario and McMaster University Osteoarthritis Index [WOMAC® 3.1] pain subscale score at Screening) will be designated as the target knee for efficacy analyses. For subjects with unilateral knee pain, only the symptomatic (target) knee will be treated.
After a Screening Period of up to 3 weeks and radiographic evaluation of the target knee joint space, a subject will be randomly assigned to 1 of 3 treatment groups in a 1:1:1 ratio with a 2:1 ratio of active:placebo within each treatment group (ie, 2 subjects to active treatment and 1 subject to placebo): • Group A: 8.75 mg 2-(diethylamino)ethyl 2-(4-isobutylphenyl)propionate/knee (2 sprays/knee, one spray to the medial surface and one spray to the lateral surface of the knee), twice daily (BID, approximately every 12 hours; n=50) or placebo (2 sprays/knee), BID (approximately every 12 hours; n=25) for a total of 4 sprays per knee per day; • Group B: 17.5 mg 2-(diethylamino)ethyl 2-(4-isobutylphenyl)propionate/knee (4 sprays/knee, one spray to the medial surface and one spray to the lateral surface of the knee, and one spray to front and one spray to the back of the knee), BID (approximately every 12 hours; n=50) or placebo (4 sprays/knee), BID (approximately every 12 hours; n=25) for a total of 8 sprays per knee per day; • Group C: 35 mg 2-(diethylamino)ethyl 2-(4-isobutylphenyl)propionate/knee (8 sprays/knee, each spray is to be applied to a different non-overlapping area around the knee, and the areas are to be uniformly distributed around the knee), BID (approximately every 12 hours; n=50) or placebo (8 sprays/knee), BID (approximately every 12 hours; n=25) for a total of 16 sprays per knee per day.
The VAS version of the WOMAC will be used for the Primary and Secondary Efficacy Endpoints. Efficacy endpoints will be assessed at Screening and Baseline (Day 1) and at the Week 2, Week 4, Week 8, and Week 12/EOS visits.
3.9.2. Secondary Efficacy Endpoints: • 1. Change from Baseline in the WOMAC (VAS) pain subscale score for the target knee at 2, 4, and 8 weeks of treatment; • 2. Change from Baseline in the WOMAC (VAS) stiffness subscale scores for the target knee and WOMAC (VAS) functional ability subscale scores at 2, 4, 8, and 12 weeks of treatment; • 3. Change from Baseline in the overall WOMAC (VAS) score at 2, 4, 8, and 12 weeks of treatment.
The Secondary Efficacy Endpoints, change from Baseline in the WOMAC subscale scores for pain, stiffness, and functional ability, and overall WOMAC score at 2, 4, 8, and 12 weeks of treatment, will be analyzed using the same methods as for the Primary Efficacy Endpoint.
To determine this, we assumed that all patients received 2-(diethylamino)ethyl 2-(4-isobutylphenyl)propionate, active drug treatment (i.e. all patients who received 2-(diethylamino)ethyl 2-(4-isobutylphenyl)propionate or placebo treatment for 12 weeks or mixed up treatment during the 12-week treatment, as 2-(diethylamino)ethyl 2-(4-isobutylphenyl)propionate-treated). Based on this assumption, that is, to treat this trial as an open-label study and that all patients received active treatment, we conducted efficacy analysis using top-line efficacy datasets prepared by CRO and the re-analysis results are presented in the following tables (Tables 29-47). […] (William G. Bensen, Justus J. Fiechtner, James 1. McMillen, et. al. Treatment of Osteoarthritis with Celecoxib. Mayo Clin Proc, November 1999. Vol 74, 1095-1105.)

[1] = 8.75 mg/knee (BID), Follow up (week 13, day 91)
[2] = 8.75 mg/knee (BID), Week 2 (day 14)
[3] = 8.75 mg/knee (BID), Week 4 (day 28)
[4] = 8.75 mg/knee (BID), Week 8 (day 56)
[5] = 8.75 mg/knee (BID), Week 12 (day 84)
[6] = 17.5 mg/knee (BID), Follow up (week 13, day 91)
[7] = 17.5 mg/knee (BID), Week 2 (day 14)
[8] = 17.5 mg/knee (BID), Week 4 (day 28)
[9] = 17.5 mg/knee (BID), Week 8 (day 56)
[10] = 17.5 mg/knee (BID), Week 12 (day 84)
[11] = 35 mg/knee (BID), Follow up (week 13, day 91)
[12] = 35 mg/knee (BID), Week 2 (day 14)
[13] = 35 mg/knee (BID), Week 4 (day 28)

SMILES: CCN(CC)CCOC(=O)C(C)c1ccc(CC(C)C)cc1 (stereo not shown) [2-(diethylamino)ethyl 2-(4-isobutylphenyl)propionate]
- Change of WOMAC Joint Stiffness score from baseline (±SEM), adjusted by […] of the Testing Drug Amount [1]: −39.1(±5.1) mm
- Percentage of improvement from baseline, WOMAC Joint Stiffness score, adjusted by […] of the Testing Drug Amount [1]: −60.9%
- Change of WOMAC Joint Stiffness score from baseline (±SEM) [1]: −22.8(±3.7) mm
- Percentage of improvement from baseline, WOMAC Joint Stiffness score [1]: −35.5%
- Change of WOMAC Joint Stiffness score from baseline (±SEM), adjusted by […] of the Testing Drug Amount [2]: −20.1(±4.3) mm
- Percentage of improvement from baseline, WOMAC Joint Stiffness score, adjusted by […] of the Testing Drug Amount [2]: −31.2%
- Change of WOMAC Joint Stiffness score from baseline (±SEM) [2]: −11.7(±2.5) mm
- Percentage of improvement from baseline, WOMAC Joint Stiffness score [2]: −18.2%
- Change of WOMAC Joint Stiffness score from baseline (±SEM), adjusted by […] of the Testing Drug Amount [3]: −31.7(±5.7) mm
- Percentage of improvement from baseline, WOMAC Joint Stiffness score, adjusted by […] of the Testing Drug Amount [3]: −49.4%
- Change of WOMAC Joint Stiffness score from baseline (±SEM) [3]: −18.5(±3.3) mm
- Percentage of improvement from baseline, WOMAC Joint Stiffness score [3]: −28.8%
- Change of WOMAC Joint Stiffness score from baseline (±SEM), adjusted by […] of the Testing Drug Amount [4]: −37.6(±6.0) mm
- Percentage of improvement from baseline, WOMAC Joint Stiffness score, adjusted by […] of the Testing Drug Amount [4]: −58.5%
- Change of WOMAC Joint Stiffness score from baseline (±SEM) [4]: −21.9(±3.5) mm
- Percentage of improvement from baseline, WOMAC Joint Stiffness score [4]: −34.1%
- Change of WOMAC Joint Stiffness score from baseline (±SEM), adjusted by […] of the Testing Drug Amount [5]: −38.4(±5.3) mm
- Percentage of improvement from baseline, WOMAC Joint Stiffness score, adjusted by […] of the Testing Drug Amount [5]: −59.7%
- Change of WOMAC Joint Stiffness score from baseline (±SEM) [5]: −22.4(±3.1) mm
- Percentage of improvement from baseline, WOMAC Joint Stiffness score [5]: −34.8%
- Change of WOMAC Joint Stiffness score from baseline (±SEM), adjusted by […] of the Testing Drug Amount [6]: −44.7(±6.2) mm
- Percentage of improvement from baseline, WOMAC Joint Stiffness score, adjusted by […] of the Testing Drug Amount [6]: −65.9%
- Change of WOMAC Joint Stiffness score from baseline (±SEM) [6]: −26.1(±3.6) mm
- Percentage of improvement from baseline, WOMAC Joint Stiffness score [6]: −38.4%
- Change of WOMAC Joint Stiffness score from baseline (±SEM), adjusted by […] of the Testing Drug Amount [7]: −32.2(±4.3) mm
- Percentage of improvement from baseline, WOMAC Joint Stiffness score, adjusted by […] of the Testing Drug Amount [7]: −47.3%
- Change of WOMAC Joint Stiffness score from baseline (±SEM) [7]: −18.8(±2.5) mm
- Percentage of improvement from baseline, WOMAC Joint Stiffness score [7]: −27.6%
- Change of WOMAC Joint Stiffness score from baseline (±SEM), adjusted by […] of the Testing Drug Amount [8]: −40.0(±5.1) mm
- Percentage of improvement from baseline, WOMAC Joint Stiffness score, adjusted by […] of the Testing Drug Amount [8]: −58.8%
- Change of WOMAC Joint Stiffness score from baseline (±SEM) [8]: −23.3(±3.0) mm
- Percentage of improvement from baseline, WOMAC Joint Stiffness score [8]: −34.3%
- Change of WOMAC Joint Stiffness score from baseline (±SEM), adjusted by […] of the Testing Drug Amount [9]: −45.5(±5.3) mm
- Percentage of improvement from baseline, WOMAC Joint Stiffness score, adjusted by […] of the Testing Drug Amount [9]: −66.9%
- Change of WOMAC Joint Stiffness score from baseline (±SEM) [9]: −26.5(±3.1) mm
- Percentage of improvement from baseline, WOMAC Joint Stiffness score [9]: −39.0%
- Change of WOMAC Joint Stiffness score from baseline (±SEM), adjusted by […] of the Testing Drug Amount [10]: −51.1(±5.8) mm
- Percentage of improvement from baseline, WOMAC Joint Stiffness score, adjusted by […] of the Testing Drug Amount [10]: −75.1%
- Change of WOMAC Joint Stiffness score from baseline (±SEM) [10]: −29.8(±3.4) mm
- Percentage of improvement from baseline, WOMAC Joint Stiffness score [10]: −43.8%
- Change of WOMAC Joint Stiffness score from baseline (±SEM), adjusted by […] of the Testing Drug Amount [11]: −41.9(±5.3) mm
- Percentage of improvement from baseline, WOMAC Joint Stiffness score, adjusted by […] of the Testing Drug Amount [11]: −67.4%
- Change of WOMAC Joint Stiffness score from baseline (±SEM) [11]: −24.4(±3.1) mm
- Percentage of improvement from baseline, WOMAC Joint Stiffness score [11]: −39.3%
- Change of WOMAC Joint Stiffness score from baseline (±SEM), adjusted by […] of the Testing Drug Amount [12]: −19.3(±4.6) mm
- Percentage of improvement from baseline, WOMAC Joint Stiffness score, adjusted by […] of the Testing Drug Amount [12]: −31.2%
- Change of WOMAC Joint Stiffness score from baseline (±SEM) [12]: −11.3(±2.7) mm
- Percentage of improvement from baseline, WOMAC Joint Stiffness score [12]: −18.2%
- Change of WOMAC Joint Stiffness score from baseline (±SEM), adjusted by […] of the Testing Drug Amount [13]: −30.2(±5.0) mm
- Percentage of improvement from baseline, WOMAC Joint Stiffness score, adjusted by […] of the Testing Drug Amount [13]: −48.5%
- Change of WOMAC Joint Stiffness score from baseline (±SEM) [13]: −17.6(±2.9) mm
- Percentage of improvement from baseline, WOMAC Joint Stiffness score [13]: −28.3%
